The results in this text go back to ChEMBL document CHEMBL4483862, “Open-source discovery of chemical leads for next-generation chemoprotective antimalarials” (2018).

A value given as a limit tells only on which side of the number the result lay.

For the assay, the system named is Plasmodium berghei. The assay is described as follows: Luciferase/luciferin-expressing antifolate-resistant parasites were used to infect a culture of HepG2 cells that were pre-incubated with compounds. Infected hepatocytes emit light due to the luciferase reaction. Assay results are presented as the percent inhibition of light emission compared to control. […]. The conditions noted are these: sporozoite; for IC50: read-out: LUCIFERASE INFECTION ASSAY - IC50; for IC90: read-out: LUCIFERASE INFECTION ASSAY - IC90. In kind it is functional.

The term IC50 denotes the concentration needed to halve the response being measured. The term IC90 denotes the concentration needed for an effect of 90%. With `O=c1c2ccc(Cl)cc2nc(-c2cccc(C(F)(F)F)c2)n1O`, the IC50 is > 9.69 µM and the IC90 is > 9.69 µM.

With `N#Cc1cc(NC(=O)c2ccc(Cl)cc2)ccc1Sc1ccccc1`, the concentration for half-maximal inhibition (IC50) is > 9.04 µM and the IC90 was > 9.04 µM.

For `CSCc1cc(N2CCOCC2)nc(SCc2ccc(Cl)cc2Cl)n1`, the half-maximal inhibitory concentration (IC50) was > 7.93 µM and the IC90 is > 7.93 µM.

Regarding `O=C1C=C(c2ccccc2)C(=O)N1Nc1ccccc1`, the IC50 is > 12.5 µM and the IC90 is > 12.5 µM.

For `Cc1ccc(NN2C(=O)C=C(c3ccc(Cl)cc3)C2=O)cc1`, the IC50 is > 10.6 µM and the concentration for an effect of 90% (IC90) was > 10.6 µM.

As for `COc1ccc(CNC(N)=O)cc1`, the half-maximal inhibitory concentration (IC50) was > 18.3 µM and the 90% effect concentration (IC90) was > 18.3 µM.

Turning to `CC(c1cccnc1)N(C)C(=O)c1cc(NCc2ccc3c(c2)CCO3)cc(S(=O)(=O)N2CCCC2)c1` (stereo unspecified), the IC50 was > 6.34 µM and the IC90 was > 6.34 µM.

For the molecule `COc1ccc(-n2ncc(N3CCC(=O)CC3)c(Cl)c2=O)cc1`, the 50% inhibitory concentration (IC50) is > 9.89 µM and the concentration for an effect of 90% (IC90) is > 9.89 µM.

Regarding `FC(F)(F)c1nc2ccccc2n2c(-c3ccc(Br)cc3)nnc12`, the IC50 was > 8.39 µM and the IC90 is > 8.39 µM.

`CCOC(=O)c1ccc(N/C=C(\C(C)=O)c2ccc(OC)c(OC)c2)cc1`: the IC50 is > 8.93 µM and the IC90 is > 8.93 µM.

Regarding `Cc1ccc(C(C)CCN2CCc3c(c(C(=O)NCc4nccs4)nn3CC3CC3)C2)o1` (stereo unspecified), the IC50 is > 7.28 µM and the IC90 is > 7.28 µM.

For the molecule `COc1cnc(-c2ccccn2)nc1SCc1ccccc1`, the IC50 was found to be 9.29 µM and the concentration for an effect of 90% (IC90) is > 10.7 µM.

For `O=C1N(CCCc2cccnc2)C(=O)C2(CCN(Cc3ccsc3)CC2)N1Cc1ccccc1`, the concentration for half-maximal inhibition (IC50) was > 6.95 µM and the IC90 is > 6.95 µM.

As to `O=C(c1csc2c1CCCC2)N1CCc2c(c(C(=O)N3CCCC3)nn2Cc2ccncc2)C1`, the IC50 was > 6.94 µM and the IC90 is > 6.94 µM.

With `CCC(CC)CN1CCC2(CC1)C(=O)N(Cc1ccc(OC)cc1)C(=O)N2CC(C)C`, the IC50 is > 7.68 µM and the IC90 was > 7.68 µM.

Take `Cc1ccc(C(C)CCN2CCc3c(c(C(=O)NCc4nccs4)nn3Cc3ccccc3)C2)o1` (stereo unspecified): the concentration for half-maximal inhibition (IC50) is > 6.74 µM and the IC90 was > 6.74 µM.

In the case of `CC(C)(C)N1C(=O)CC(=O)CC1c1ccc(Cl)cc1` (stereo unspecified), the IC50 amounted to 9.51 µM and the 90% effect concentration (IC90) was 11.1 µM.

For `O=C(NNC(=O)c1[nH]c2ccccc2c1-c1ccccc1)Nc1cccc(C(F)(F)F)c1`, the IC50 was > 7.53 µM and the concentration for an effect of 90% (IC90) was > 7.53 µM.

`Cc1ccc(C)c(CN2CCC3(CC2)C(=O)N(CCCc2cccnc2)C(=O)N3Cc2ccccc2)c1`: the IC50 turned out to be 4.38 µM and the 90% effect concentration (IC90) amounted to 5.55 µM.

As to `O=C(Nc1ccccc1)OCc1cccnc1Sc1ccc(Cl)cc1`, the IC50 was > 8.9 µM and the concentration for an effect of 90% (IC90) is > 8.9 µM.

Consider `COc1ccc(-c2cc3c(n(C)c2=O)CCN(C(=O)C(C)n2nc(C)cc2C)C3)c2ccc(C)nc12` (stereo unspecified), for which the concentration for half-maximal inhibition (IC50) is > 6.8 µM and the 90% effect concentration (IC90) is > 6.8 µM.

For the molecule `COc1cccc(Cn2nc(C(=O)NC3CC3)c3c2CCN(C(=O)c2cc4ccccc4[nH]2)C3)c1`, the IC50 was > 7.03 µM and the IC90 is > 7.03 µM.

In the case of `O=C(Nc1cc(Cl)cc(Cl)c1)OCc1ccc(Oc2ccccc2)c([N+](=O)[O-])c1`, the IC50 is > 7.62 µM and the concentration for an effect of 90% (IC90) was > 7.62 µM.

Turning to `FC(F)(F)c1cnc(/C=N/Nc2ncc(C(F)(F)F)cc2Cl)c(Cl)c1`, the half-inhibitory concentration (IC50) was 2.69 µM and the IC90 is 3.13 µM.

Consider `CCOC(=O)c1nn(CC2CC2)c2c1CN(CC(C)Cc1ccc3c(c1)OCO3)CC2` (stereo unspecified), for which the IC50 was > 7.76 µM and the IC90 was > 7.76 µM.

As to `Cc1cc2c(cc1C)NC(c1c(O)ccc3ccccc13)C1C(=O)CC(C)(C)CC1=N2` (stereo unspecified), the IC50 was 7.67 µM and the IC90 is > 8 µM.

On to `Cc1ccc(C(=O)C(/C=N/N)=N/Nc2cc(Cl)cc(Cl)c2)cc1`, for which the IC50 came to 9.09 µM and the concentration for an effect of 90% (IC90) was > 9.45 µM.

Turning to `FC(F)(F)c1nc2ccccc2nc1N/N=C/C=C/c1ccccc1`, the IC50 is > 9.64 µM and the 90% effect concentration (IC90) is > 9.64 µM.

`COC(=O)c1c(NC(C)=O)c2cc(NC(C)Cc3ccccc3F)cnc2n1CCC(C)C` (stereo unspecified): the IC50 was > 7.26 µM and the IC90 is > 7.26 µM.

As for `CNc1cc(CSCc2ccc(Cl)cc2)nc(-c2ccccc2)n1`, the IC50 was > 9.27 µM and the concentration for an effect of 90% (IC90) was > 9.27 µM.

`O=c1c(NS(=O)(=O)c2ccc(Cl)cc2)cccn1Cc1ccc(Cl)c(Cl)c1`: the IC50 was > 7.44 µM and the IC90 was > 7.44 µM.

Regarding `Cc1ccc(NC(=O)c2cccn(Cc3ccc(C(F)(F)F)cc3)c2=O)cc1C`, the half-inhibitory concentration (IC50) is > 8.24 µM and the IC90 is > 8.24 µM.

On to `O=C(Nc1ccc(F)cc1F)c1nnsc1S(=O)(=O)c1ccc(Cl)cc1`, for which the IC50 is > 7.94 µM and the 90% effect concentration (IC90) is > 7.94 µM.

For `N#Cc1cc(NC(=O)c2cccc(Cl)c2)ccc1Sc1cccc(C(F)(F)F)c1`, the half-inhibitory concentration (IC50) is > 7.62 µM and the 90% effect concentration (IC90) was > 7.62 µM.

As for `CN1CCN(S(=O)(=O)c2cc(C(=O)NCc3ccccc3F)cc(-c3ccccc3)c2)CC1`, the half-inhibitory concentration (IC50) came out at 6.09 µM and the IC90 was > 7.06 µM.

In the case of `COc1ccc(S(=O)(=O)NN(C)c2nc3ccccc3nc2C(F)(F)F)cc1`, the IC50 is 5.18 µM and the IC90 was > 8 µM.

For `COC(=O)c1c(NC(C)=O)c2cc(NC(C)CC(C)C)cnc2n1CCC(C)C` (stereo unspecified), the IC50 is > 8.2 µM and the IC90 was > 8.2 µM.

As to `Cc1ccccc1Sc1ccc(NC(=O)c2ccc(F)cc2)cc1C#N`, the 50% inhibitory concentration (IC50) was > 9.11 µM and the concentration for an effect of 90% (IC90) is > 9.11 µM.

On to `CN1C(=O)N(CCc2ccccc2)C(=O)C12CCN(Cc1ccc3c(c1)Cc1ccccc1-3)CC2`, for which the IC50 worked out at 6.49 µM and the IC90 is > 7.09 µM.

Regarding `CCOC(=O)c1nnsc1[S+]([O-])c1ccc(Cl)cc1` (stereo unspecified), the IC50 was > 10.4 µM and the IC90 was > 10.4 µM.

With `COC(=O)c1c(NC(=O)c2cccnc2)c2cc(NCC(C)C)cnc2n1CC(C)C`, the IC50 was > 7.79 µM and the 90% effect concentration (IC90) was > 7.79 µM.

In the case of `COc1cccc(C(=O)Nc2ccc(Sc3cccc(C(F)(F)F)c3)c(C#N)c2)c1`, the IC50 is > 7.7 µM and the concentration for an effect of 90% (IC90) is > 7.7 µM.

Consider `COc1cc(-n2nnnc2-c2ccc([N+](=O)[O-])cc2)c(Cl)cc1Cl`, for which the IC50 was > 9.01 µM and the 90% effect concentration (IC90) was > 9.01 µM.

As for `COc1cc(NC(=O)c2sccc2Oc2ccccc2[N+](=O)[O-])c(Cl)cc1Cl`, the IC50 is > 7.51 µM and the IC90 is > 7.51 µM.

For the molecule `Clc1ccc2[nH]c(-c3cccs3)c(-c3ccccc3)c2c1`, the 50% inhibitory concentration (IC50) is 5.01 µM and the IC90 was > 10.7 µM.

For `CCn1nc(C)c(CN2CCC3(CC2)C(=O)N(Cc2ccccc2)C(=O)N3CCc2ccccc2)c1C`, the IC50 was 2.92 µM and the IC90 was > 6.6 µM.

`FC(F)(F)c1cnc(N/N=C/c2ccccn2)c(Cl)c1`: the IC50 was found to be 3.33 µM and the IC90 worked out at 4 µM.

On to `N#Cc1cc(NC(=O)c2ccc(F)cc2)ccc1Sc1cccc(C(F)(F)F)c1`, for which the IC50 was found to be 3.07 µM and the concentration for an effect of 90% (IC90) is > 7.93 µM.

Take `O=C(/C=C/c1ccco1)Nc1ccc(Cl)cc1Cl`: the IC50 is 9.77 µM and the IC90 amounted to 11.1 µM.

For the molecule `CN(NC(=O)c1cccc(C(F)(F)F)c1)c1c(C#N)c(C(F)(F)F)nn1C`, the 50% inhibitory concentration (IC50) was > 8.43 µM and the IC90 was > 8.43 µM.

Regarding `CC(=N\Nc1ccc(F)cc1)/C(=N/O)C(=O)Nc1ccccc1`, the concentration for half-maximal inhibition (IC50) is > 10.5 µM and the IC90 was > 10.5 µM.

Take `CNC(=O)c1nn(CCc2ccccc2)c2c1CC(NCCC(C)C)CC2` (stereo unspecified): the 50% inhibitory concentration (IC50) was > 8.95 µM and the 90% effect concentration (IC90) was > 8.95 µM.

For `N#Cc1[nH]c2ccc(Cl)cc2c1-c1ccccc1`, the IC50 is > 13.1 µM and the 90% effect concentration (IC90) is > 13.1 µM.

In the case of `CC(C)N1C(=O)N(CCc2ccccc2)C2(CCN(C3Cc4ccccc4C3)CC2)C1=O`, the 50% inhibitory concentration (IC50) is 6.55 µM and the 90% effect concentration (IC90) was > 7.65 µM.

For `O=S(=O)(Cc1cc(N2CCN(c3ccccc3)CC2)nc(-c2ccccn2)n1)c1ccccc1`, the 50% inhibitory concentration (IC50) is > 7 µM and the 90% effect concentration (IC90) is > 7 µM.

Turning to `CCN1CCC(Nc2cnc3c(c2)c(NC(=O)Cc2ccccc2)c(C(=O)OC)n3CC(C)C)CC1`, the IC50 was 5.59 µM and the IC90 is > 6.71 µM.

For the molecule `C/C(=C\c1ccco1)CN1CCc2c(c(C(=O)NCc3ccccn3)nn2CCc2ccccc2)C1`, the IC50 is > 6.85 µM and the IC90 was > 6.85 µM.

`O=C(Nc1nc(=O)n(C(=O)c2cccs2)s1)c1ccccc1`: the 50% inhibitory concentration (IC50) was > 9.96 µM and the concentration for an effect of 90% (IC90) is > 9.96 µM.

Turning to `C=C(C)C(=O)Nc1ccc([N+](=O)[O-])cc1Cl`, the IC50 is > 13.7 µM and the 90% effect concentration (IC90) is > 13.7 µM.

`COC(=O)c1c(NC(=O)c2ccoc2)c2cc(NC(C)CC(F)(F)F)cnc2n1CC(C)C` (stereo unspecified): the IC50 is > 7.07 µM and the concentration for an effect of 90% (IC90) was > 7.07 µM.

As for `[O-][S+](Cc1cc(N2CCCCC2)nc(-c2ccccn2)n1)c1ccc(Cl)cc1` (stereo unspecified), the IC50 was > 7.99 µM and the IC90 was > 7.99 µM.

In the case of `Cc1ccccc1-c1ccc(CN2CCC3(CC2)C(=O)N(Cc2cccnc2)C(=O)N3C)cc1`, the 50% inhibitory concentration (IC50) was 2.36 µM and the IC90 turned out to be 2.76 µM.

Consider `N#CCCC(C#N)(c1ccc(F)cc1)c1cccc(F)c1C#N` (stereo unspecified), for which the concentration for half-maximal inhibition (IC50) is > 10.7 µM and the concentration for an effect of 90% (IC90) is > 10.7 µM.

As for `Clc1ccc(SCc2cc(NCc3ccccc3)nc(-c3cccnc3)n2)cc1`, the IC50 was 6.53 µM and the 90% effect concentration (IC90) worked out at 7.84 µM.

In the case of `COc1ccc(Sc2ccc(NC(=O)c3ccc(Cl)cc3Cl)cc2C#N)cc1`, the half-inhibitory concentration (IC50) was > 7.69 µM and the IC90 was > 7.69 µM.

As for `CCN1C(=O)N(C2Cc3ccccc3C2)C(=O)C12CCN(Cc1c[nH]nc1-c1ccc(F)cc1)CC2`, the concentration for half-maximal inhibition (IC50) came out at 4.54 µM and the concentration for an effect of 90% (IC90) was > 6.77 µM.

For `COc1ccc(CCn2nc(C(=O)N(C)C)c3c2CCN(CCCc2ccccc2)C3)cc1`, the concentration for half-maximal inhibition (IC50) was > 7.39 µM and the IC90 is > 7.39 µM.

In the case of `COCCn1c(C(=O)OC)c(NC(=O)c2ccco2)c2cc(NC(C)Cc3ccc(C)cc3)cnc21` (stereo unspecified), the IC50 was 3.69 µM and the IC90 is > 6.73 µM.
